Measurements as given in PMC5893419 (Bioorganic & medicinal chemistry letters, 2018).
Converted amounts (≈) assume the structure as drawn.

What was measured:
Staphylococcus spp. = assay: Antistaphylococcal activity, summary of broth microdilution MICs; format: cell-based
Micrococcus luteus SK58 = assay: microbe, parasite or virus in culture; format: cell-based
[1] = test system: VAN-resistant S. aureus (VRSA); conditions: against VRSA; cited from earlier work
[2] = test system: methicillin-resistant Staphylococcus aureus (MRSA); conditions: in vitro growth of MRSA; cited from earlier work
MRSA COL = assay: microbe, parasite or virus in culture; conditions: Staphylococcus aureus, 20 h
[3] = range over staphylococcal strains of Table 1
[4] = range over staphylococcal strains, converted from μM

SMILES | MIC range, antistaphylococcal activity (Staphylococcus spp.; [3]) [µM] | MIC range, antistaphylococcal activity (Staphylococcus spp.; [4]) [µg/mL] | also measured
CCCCCCCSSC(=S)N(CC)CC [1i] | 2 to 4 | 0.6 to 1.2 | –
CCCCCCCCSSC(=S)N(CC)CC [1j, 1-[(diethylcarbamothioyl)disulfanyl]octane] | 2 to 4 | 0.6 to 1.2 | MIC (Micrococcus luteus SK58): > 32 µM
CCN(CC)C(=S)SSC(=S)N(CC)CC [disulfiram] | – | – | interaction with vancomycin (VAN) [1]: synergism; minimum inhibitory concentration (MIC) range [2]: 4 to 32 µg/mL
CN[C@H](CC(C)C)C(=O)N[C@H]1C(=O)N[C@@H](CC(N)=O)C(=O)N[C@H]2C(=O)N[C@H]3C(=O)N[C@H](C(=O)N[C@H](C(=O)O)c4cc(O)cc(O)c4-c4cc3ccc4O)[C@H](O)c3ccc(c(Cl)c3)Oc3cc2cc(c3O[C@@H]2O[C@H](CO)[C@@H](O)[C@H](O)[C@H]2O[C@H]2C[C@](C)(N)[C@H](O)[C@H](C)O2)Oc2ccc(cc2Cl)[C@H]1O [vancomycin] | – | – | MIC (MRSA COL): 2 µg/mL (≈ 1.38 µM)
